Results from patent US5834492A, “Water soluble orally effective iron chelator” (Jacobus Pharmaceutical Co., priority 1997, dated 1998).
Values after ≈ are worked out from the molar mass of the structure shown. Values joined by “and” are separate entries in the source; they are usually repeats but may differ in a detail not shown here. Equal values may be shown once. “Also recorded” adds a separate entry of the source. Where a name gives a salt, the structure may show the parent alone. Read-outs that look alike come from different tables or passages of the source.

Key:
[1] = cited from earlier work
[2] = Water / aqueous solubility at 25 °C; assay type: physicochemical
[3] = noted by Sah 1953; cited from earlier work
[4] = Human studies of oral PIH: iron excretion, toxicity, palatability; assay type: in vivo; settings: in the mouth
Description: There has, heretofore been no convenient, safe and effective orally administered chelator that has been developed for clinical use.

[5] = below pH 3; chromatographic investigations; cited from earlier work
[6] = continuous infusion in solution; rats; cited from earlier work
[7] = cited from earlier work; remark: listed apart in the source
[8] = Solubility in ethanol or acetonitrile; assay type: physicochemical
Experimental: PIH has very limited solubility in water and ethanol, and in fact, to solubilize 28.6 grams of PIH would require 30,000 cc of absolute ethanol. Nevertheless, the aforesaid molar concentrations were used to produce a suspension to which was added the ethereal HCI solution.
As a result of applicant's work, this procedure raises even more questions of operability than the immediately preceding one, since the acetonitrile solubility of the precipitate obtained after treatment of an authentic sample of PIH with ethereal HCI, is virtually nil. Specifically, attempts to solubilize the product succeeded in dissolving only 40 ma of material per 500 cc of hot acetonitrile--a ratio of 1 gram per 12.5 liters of acetonitrile (a ratio of […]) and no precipitate was obtained after addition of dry ether--even upon cooling the solution. Applicants were unable to liberate any product from the recrystallization system disclosed in U.S. 2,810,725.
This cannot be accomplished since the solubility of PIH in ethanol is approximately 1 mg/mL and would require a volume of 30,000 cc for dissolution as described and not 500 cc.
There was utilized a suspension of 57.2 mg/cc (1.43 g, 5 mMol in 25 cc absolute ethanol) to which were added two equivalents (10 mmoles) of 4 N ethereal HCI (2.5 cc) and stirred for one hour. The light yellow starting material became a copious off-white suspension. This was filtered and dried to give 1.68 g of a solid with melting point 250°-252°C. (dec) with discoloration beginning at 240° C. An authentic sample of PIH dihydrochloride, synthesized according to Example 1 supra, melts at 255°-257° C.

[9] = Stability of the solid to light and anhydrous heat; assay type: physicochemical
[10] = Total daily iron excretion in iron overloaded patients (enteric granules or glycine-buffered capsules); settings: patients with iron overload
Experimental: Five human subjects were administered PIHDH (PIH(HCI)2) as either enteric coated granules at 546 mg three times daily representing the lowest dose tested at 20 mg/kg per day.

[11] = Iron complexation (chelation); settings: aqueous solutions in vitro and in vivo
[12] = Stability/degradation in aqueous medium of given pH; assay type: physicochemical; settings: for degraded at 3 h: aqueous medium, read-out: degradation after three hours
[13] = Biliary iron excretion in iron-overloaded rats after gavage, bile duct cannulated; assay type: in vivo, Male Sprague-Dawley rats; settings: gavage 100 mg/kg, versus PIH equivalent dosage
Experimental: Measurement of the bioefficiency of iron chelators have been carried out in rats using the methods of Brittenham supra and Park et al,(C. Park, B. R. Bacon, G. M. Brittenham and N. Tas. Lab Invest. 57:555-63 (1987).
Male Sprague-Dawley rats weighing approximately 200 g were housed in cages and randomly assigned to three groups containing at least 6 animals. The groups received (i) one ml of saline alone administered by gavage (ii) 1 mL saline with PIH as the free base, 100 mg/kg body weight, added just prior to administration by gavage and (iii) 1 mL saline with PIHDH, 100 mg/kg body weight, added just prior to administration by gavage. The doses of chelators tested are chosen to provide direct comparisons with previous assay data. Animals receiving the chelators or saline by gavage receive doses 45 minutes prior to surgery. Animals are placed under anesthesia and the bile duct cannulated to permit continuous collection of bile during the assay time period. The bile is collected at half-hour intervals for 5 or 6 hours and the iron content determined spectrophotometrically, using bathophen-anthroline sulfonate for color development as published by Pippard et al, (M. J. Pippard, D. K. Johnson and C. A. Finch. Blood. 58:685-92 (1981)). […]

[14] = water, 25 °C (FIG. 16), read-out: water solubility

In the case of `Cc1ncc(CO)c(/C=N/NC(=O)c2ccncc2)c1O` [PIH, 3-hydroxy-5-hydroxy-methyl-2-methyl-4-pyridinylcarboxaldehyde 4' pyridinecarboxylic acid hydrazone], the “absorption after oral administration” value [1] is listed as “not fully absorbed in vivo after oral administration”, the “PIH crystals in feces” value ([1]; treated animals/subjects, oral) is listed as “presence of PIH crystals in the feces of treated animals; also recorded: crystals actually visible in feces of treated subjects” and the water solubility ([2]; water, 25 °C (FIG. 16)) is listed as 0.14 mg/mL (≈ 489 µM). For the same molecule, the solubility [2, 14] was 0.14 mg/mL (≈ 489 µM), the “water solubility, in words (literature)” value [3] was “very low water solubility” and the taste [4] was “unpleasant taste”. For the same molecule, the “instability under acidic conditions” value [5] was “dissolution below pH 3 can lead to decomposition”, the “iron excretion compared to desferrioxamine” value [6] was “quantitatively similar iron excretion” and the “iron excretion compared with subcutaneously injected desferrioxamine” value ([7]; oral PIH at three times the molar rates, preliminary human studies) was “less than half of that expected with subcutaneously injected desferrioxamine”. The “toxicity at doses needed for sufficient iron excretion” value ([7]; oral capsule, >60 mg/kg, people) was “toxicity characterized by elevated hepatic enzymes”, the “oral dose needed to elicit sufficient iron excretion” value ([7]; oral capsule, people) was over 60 mg/kg and the “oral efficacy / iron removal in humans” value ([7]; oral, humans) was “poor oral efficacy; also recorded: inadequate levels of iron are removed in humans”. The palatability ([7]; oral, phase I clinical trials) was “highly unpalatable with a lingering unpleasant taste and oral sensation”, the “volume of absolute ethanol required to dissolve 28.6 g PIH” value ([8]; absolute ethanol) was 30,000 cc and 30.000 cc and the solubility in ethanol ([8]; ethanol) was “approximately 1 mg/mL”.
With `Cc1ncc(CO)c(C=NNC(=O)c2ccncc2)c1O` [PIHDH, 3-hydroxy-5-(hydroxy-methyl)-2-methyl-4-pyridinecarboxaldehyde-4' pyridinecarboxylic acid hydrazone dihydrochloride] the “water solubility relative to PIH (times more water soluble)” value ([2]; PIHDH versus PIH base, dihydrochloride) was 450 times and > 450 times, the solubility [2, 14] was 63 mg/mL and the “water solubility, in words” value ([2]; water, dihydrochloride) was “better water solubility than the free base and its related hydrated species”. For the same molecule, the stability of crystals [9] was “stable to light and anhydrous heat”, the “absorption of enteric granules or buffered capsules” value [10] was “adequately absorbed” and the “ability to complex iron” value [11] was “preserves its ability to complex iron in aqueous solutions in vitro and in vivo”. For the same molecule, the degraded at 3 h ([12]; pH 1.29, 3 h) was 44.1%, the degraded at 3 h ([12]; pH 2.78, 3 h) was 17.7% and the decomposition when buffered ([12]; buffered above 3.0 to 7.0) was “virtually little to virtually no decomposition”. For the same molecule, the “degradation after three hours” value ([12]; pH 6.8, 3 h) was “no degradation”, the “total biliary iron excretion relative to PIH (percent)” value [13] was 250% and the “total biliary iron excretion relative to PIH (times greater)” value [13] was 2.5 times.
In the case of `Cc1ncc(CO)c(C=NNC(=O)c2ccncc2)c1O` [Pyridoxal isonicotinoyl hydrazone isethionate], the solubility ([2]; 0.1 n hcl, read-out: solubility in 0.1N HCl) is reported as 36 mg/mL and the solubility ([2]; water, read-out: water solubility) is reported as 2.7 mg/mL.
With `Cc1ncc(CO)c(C=NNC(=O)c2ccncc2)c1O` [hydrochloride-1.5 hydrate of PIH, 3-hydroxy-5-(hydroxymethyl) -2-methyl-4-pyridinecarboxaldehyde-4' pyridin ecar-boxylic acid hydrazone monohydrochloride trihemihydrate] the water solubility ([2]; water, 25 °C (FIG. 16)) was 34 mg/mL and the “water solubility, in words” value ([2]; water, listed as monohydrochloride 1.5 hydrate) was “slower solubilization”.
For `Cc1ncc(CO)c(C=NNC(=O)c2ccncc2)c1O` [product], the “solubility in acetonitrile, in words” value ([8]; acetonitrile) was “virtually nil”, the “solubility of product in acetonitrile” value ([8]; acetonitrile) was “less than 0.1 mg/mL” and the “amount of material dissolved per 500 cc hot acetonitrile” value ([8]; per 500 cc hot acetonitrile) was 40 ma.
